Entries after “also recorded” stand apart in the source; their conditions may differ. Starred links: 1 amine or outer side, 2 acyl side, 3 side chain; linkers in the order of their positions; H or OH if unused. Positions of bridges follow the written chain, without caps; N, C: chain ends. Non-standard residues stand in square brackets, D forms with d. Chains are numbered I, II in the order given. X1 = O=C(CCOCCOCCOCCN(CCOCCOCCOCCn1cc(CCC(=O)[*:2])nn1)CCOCCOCCOCCn1cc(CCC(=O)[*:3])nn1)[*:1]; TATA = O=C(CC[*:1])N1CN(C(=O)CC[*:2])CN(C(=O)CC[*:3])C1; d1Nal = N[C@H](Cc1cccc2ccccc12)C(=O)O; Hyp = O=C(O)[C@@H]1C[C@@H](O)CN1; hArg = N=C(N)NCCCC[C@H](N)C(=O)O; tBuAla = CC(C)(C)C[C@H](N)C(=O)O; Nle = CCCC[C@H](N)C(=O)O
Key:
MC38 #13 tumors = test: Re-inoculation of complete responders with MC38 #13 cells (immunogenic memory); format: in vivo, C57BL/6J-hCD137 mice; details: re-inoculated day 69 with 1x10^6 MC38 #13 cells; 22 days observation
Source text: On day 69, 5 animals that had responded completely to BCY11863 treatment were re-inoculated with 1×10^6 MC38 #13-cells. A cohort of 5 naïve C57BL/6J-hCD137 female mice were inoculated with 1×10^6 MC38 #13-cells as a control.

cyno Nectin-4 [1] = test: Multicomponent SPR: Nectin-4 binding to complex captured on biotinylated human CD137, cyno Nectin-4; details: Sandwich Assay, Nectin-4 ECD, biotinylated human CD137 as capture reagent; read-out: SPR KD NHP
Source text: (§1) To understand whether the binding of BCY11863 to Nectin-4 was altered in the context of the ternary complex, i.e. when also bound to CD137, a multicomponent SPR binding assay was developed. BCY11863 was first captured to human CD137 immobilized on the SPR chip surface and then Nectin-4 from different species were passed over the chip to determine their affinities to the captured BCY11863 (see FIG. 21C). The affinities to Nectin-4 were generally maintained in the presence of CD137 binding as shown below: […]

CD137 = CD137 (Homo sapiens, UniProt Q07011); test: CD137 reporter assay (Promega CD137 luciferase reporter, Jurkat cells) in co-culture with Nectin-4-expressing tumor cells; format: cell-based; set-up: host or cells: Jurkat reporter cells; details: for EC50: Arithmetic mean EC50 (nM)
cyno Nectin-4 [2] = test: SPR direct binding to biotinylated Nectin-4 extracellular domain, cyno
Source text: The binding of BCY11863 to its primary target Nectin-4 and CD137 was characterized using surface plasmon resonance (SPR).

rat Nectin-4 = target: T1, rat Nectin-4 (Rattus norvegicus, UniProt D3ZET1); test: Multicomponent SPR: Nectin-4 binding to complex captured on biotinylated human CD137, rat Nectin-4
T1 construct: extracellular domain using biotinylated human
Source text: as §1

MC38 tumors = test: Anti-tumor activity of BCY13272 in syngeneic MC38 tumor model with re-challenge; format: in vivo, C57BL/6J-hCD137 mice; details: for complete responders: 6 doses, day 28
Procedure: 6-8 week old female C57BL/6J-hCD137 mice [B-hTNFRSF9(CD137) mice; Biocytogen] were implanted subcutaneously with 1×10^6 MC38 cells. Mice were randomized into treatment groups (n=6/cohort) when average tumor volumes reached around 80 mm^3 and were treated with vehicle (25 mM histidine, 10% sucrose, pH7) intravenously (IV), 8 mg/kg BCY13272, 0.9 mg/kg BCY13272 and 0.1 mg/kg BCY13272 IV. All treatments were given twice a week (BIW) for 6 doses in total. Tumor growth was monitored until Day 28 from treatment initiation. Complete responder animals (n=7) were followed until day 62 after treatment initiation and re-challenged with an implantation of 2×10^6 MC38 tumor cells and tumor growth was monitored for 28 days. In parallel, naïve age-matched control huCD137 C57Bl/6 mice (n=5) were implanted with 2×10^6 MC38 tumor cells monitored for 28 days.

human EphA2 = human EphA2 (Homo sapiens, UniProt P29317); test: SPR (Biacore) binding to immobilized human EphA2
Procedure: Biacore experiments were performed to determine ka (M^−1s^−1), kd (s^−1), KD (nM) values of BCY13272 binding to human EphA2 protein.
EphA2 were biotinylated with EZ-Link™ Sulfo-NHS-LC-Biotin for 1 hour in 4 mM sodium acetate, 100 mM NaCl, pH 5.4 with a 3× molar excess of biotin over protein. The degree of labelling was determined using a Fluorescence Biotin Quantification Kit (Thermo) after dialysis of the reaction mixture into PBS. For analysis of peptide binding, a Biacore T200 instrument was used with a XanTec CMD500D chip. Streptavidin was immobilized on the chip using standard amine-coupling chemistry at 25° C. with HBS-N (10 mM HEPES, 0.15 M NaCl, pH 7.4) as the running buffer. Briefly, the carboxymethyl dextran surface was activated with a 7 min injection of a 1:1 ratio of 0.4 M 1-ethyl-3-(3-dimethylaminopropyl) carbodiimide hydrochloride (EDC)/0.1 M N-hydroxy succinimide (NHS) at a flow rate of 10 μl/min. For capture of streptavidin, the protein was diluted to 0.2 mg/ml in 10 mM sodium acetate (pH 4.5) and captured by injecting 120 μl onto the activated chip surface. Residual activated groups were blocked with a 7 min injection of 1 M ethanolamine (pH 8.5):HBS-N (1:1). Buffer was changed to PBS/0.05% Tween 20 and biotinylated EphA2 was captured to a level of 500-1500 RU using a dilution of protein to 0.2 μM in buffer. […]

Chain of CD137 (Q07011 24-255): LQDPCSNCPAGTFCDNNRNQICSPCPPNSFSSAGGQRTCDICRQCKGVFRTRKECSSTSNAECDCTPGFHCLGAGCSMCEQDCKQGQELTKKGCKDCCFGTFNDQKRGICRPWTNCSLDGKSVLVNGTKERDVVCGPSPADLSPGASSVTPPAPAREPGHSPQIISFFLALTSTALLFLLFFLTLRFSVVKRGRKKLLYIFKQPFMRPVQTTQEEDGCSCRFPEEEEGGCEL
Chain of human EphA2 (P29317 24-976): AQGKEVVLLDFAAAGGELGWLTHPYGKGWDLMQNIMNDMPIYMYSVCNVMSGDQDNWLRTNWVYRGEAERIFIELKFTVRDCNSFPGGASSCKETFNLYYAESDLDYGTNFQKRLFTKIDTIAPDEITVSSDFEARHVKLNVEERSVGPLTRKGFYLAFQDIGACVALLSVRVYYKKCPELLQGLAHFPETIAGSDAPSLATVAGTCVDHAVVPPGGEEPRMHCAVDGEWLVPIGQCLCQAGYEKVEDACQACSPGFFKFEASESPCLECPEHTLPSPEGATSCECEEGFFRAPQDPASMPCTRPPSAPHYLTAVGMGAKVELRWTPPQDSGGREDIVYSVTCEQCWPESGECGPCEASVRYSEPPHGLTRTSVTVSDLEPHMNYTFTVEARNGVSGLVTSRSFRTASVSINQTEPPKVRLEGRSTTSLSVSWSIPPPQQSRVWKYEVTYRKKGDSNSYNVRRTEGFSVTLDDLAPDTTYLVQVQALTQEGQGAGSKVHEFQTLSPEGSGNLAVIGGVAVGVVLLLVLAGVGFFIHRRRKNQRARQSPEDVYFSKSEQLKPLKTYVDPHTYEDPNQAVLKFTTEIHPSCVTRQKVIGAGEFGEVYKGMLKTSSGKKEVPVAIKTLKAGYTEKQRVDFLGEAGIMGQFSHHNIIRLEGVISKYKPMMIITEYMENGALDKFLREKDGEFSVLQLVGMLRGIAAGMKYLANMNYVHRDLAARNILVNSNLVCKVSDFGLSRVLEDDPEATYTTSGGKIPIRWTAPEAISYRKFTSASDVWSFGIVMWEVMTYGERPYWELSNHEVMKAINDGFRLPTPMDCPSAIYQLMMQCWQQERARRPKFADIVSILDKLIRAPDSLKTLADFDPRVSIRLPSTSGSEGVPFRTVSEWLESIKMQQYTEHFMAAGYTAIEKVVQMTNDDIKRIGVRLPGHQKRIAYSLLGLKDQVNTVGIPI
T1 sequence (D3ZET1 31-509): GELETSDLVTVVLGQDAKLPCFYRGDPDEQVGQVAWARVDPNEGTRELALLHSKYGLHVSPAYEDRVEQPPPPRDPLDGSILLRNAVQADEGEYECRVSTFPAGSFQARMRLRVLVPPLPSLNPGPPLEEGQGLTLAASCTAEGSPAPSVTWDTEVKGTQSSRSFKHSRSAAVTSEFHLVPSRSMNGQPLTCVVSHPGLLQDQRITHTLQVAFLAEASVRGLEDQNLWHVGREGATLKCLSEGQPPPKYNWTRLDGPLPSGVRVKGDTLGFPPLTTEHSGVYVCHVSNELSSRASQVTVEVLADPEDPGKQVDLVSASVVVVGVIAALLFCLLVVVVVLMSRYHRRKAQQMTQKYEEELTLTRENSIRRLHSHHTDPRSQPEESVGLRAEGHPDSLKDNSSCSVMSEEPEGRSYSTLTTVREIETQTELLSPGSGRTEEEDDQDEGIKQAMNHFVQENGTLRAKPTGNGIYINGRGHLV
T1 sequence (Q07011 24-186 partner): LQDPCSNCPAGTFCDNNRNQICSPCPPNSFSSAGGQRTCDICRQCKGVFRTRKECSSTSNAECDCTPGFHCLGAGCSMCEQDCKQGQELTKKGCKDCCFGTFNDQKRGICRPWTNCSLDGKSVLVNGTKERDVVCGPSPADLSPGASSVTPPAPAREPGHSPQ

| Compound | tumor development after re-inoculation of complete responders (MC38 #13 tumors) | Kd (cyno Nectin-4 [1]) | EC50 (CD137; co-culture with CT26#7 (mouse)) | EC50 (CD137; co-culture with HT1376 (human), Table 1B) | EC50 (CD137; co-culture with MC38#13 (mouse)) | EC50 (CD137; co-culture with MDA-MB-468 (human)) | EC50 (CD137; co-culture with NCI-H292 (human), Table 1B) | EC50 (CD137; co-culture with NCI-H322 (human)) | EC50 (CD137; co-culture with T47D (human)) | CD137 activation in CD137 reporter assay (CD137; FIG. 1A, Nectin-4 expressing H292 cells) | Fold improvement in EC50 over BCY10000 on same plate (CD137; co-culture with NCI-H292) | Fold improvement in Emax over BCY10000 on same plate (CD137; co-culture with NCI-H292) | Fold Induction over Background (CD137; co-culture with NCI-H292, Table 1A) | Kd (cyno Nectin-4 [2]; Direct Binding, biotinylated Nectin-4 extracellular domain, 25° C., read-out: SPR KD NHP (25° C.)) | Kd (cyno Nectin-4 [2]; biotinylated ECD captured on streptavidin chip, read-out: KD) | Kd (rat Nectin-4) | complete responders (MC38 tumors; 0.9 mg/kg IV BIW) | complete responders (MC38 tumors; 8 mg/kg IV BIW) | tumor regrowth after MC38 re-challenge of complete responders (MC38 tumors; re-challenge day 62, monitored 28 days) | Kd (human EphA2) |
| --- | --- | --- | --- | --- | --- | --- | --- | --- | --- | --- | --- | --- | --- | --- | --- | --- | --- | --- | --- | --- |
| CCCC[C@@H]1NC(=O)[C@H](Cc2ccc(O)cc2)NC(=O)[C@@H]2CCCN2C(=O)[C@H](CC(=O)O)NC(=O)[C@H](C)NC(=O)[C@H](Cc2ccccc2)NC(=O)[C@@H]2CSCCC(=O)N3CN(CN(C3)C(=O)CCSC[C@@H](C(=O)N[C@@H](C)C(N)=O)NC1=O)C(=O)CCSC[C@H](NC(C)=O)C(=O)N[C@@H](CC(C)(C)C)C(=O)N1CCC[C@H]1C(=O)N[C@@H](CCC(=O)O)C(=O)N[C@H](CCCCNC(=O)CCc1cn(CCOCCOCCOCCN(CCOCCOCCOCCC(=O)N[C@H]3CSCCC(=O)N4CN5CN(C4)C(=O)CCSC[C@H](NC(=O)[C@@H](CC(=O)O)NC(=O)[C@H](Cc4cccc6ccccc46)NC(=O)[C@@H]4CCCN4C3=O)C(=O)N[C@@H](CCSC)C(=O)N[C@@H](CCCCNC(=N)N)C(=O)N[C@@H](CC(=O)O)C(=O)N[C@@H](Cc3c[nH]c4ccccc34)C(=O)N[C@@H](CO)C(=O)N[C@@H]([C@@H](C)O)C(=O)N3CCC[C@H]3C(=O)N3C[C@H](O)C[C@H]3C(=O)N[C@@H](Cc3c[nH]c4ccccc34)C(=O)N[C@H](C(N)=O)CSCCC5=O)CCOCCOCCOCCn3cc(CCC(=O)NCCCC[C@H]4NC(=O)[C@H](CCC(=O)O)NC(=O)[C@@H]5CCCN5C(=O)[C@H](CC(C)(C)C)NC(=O)[C@@H](NC(C)=O)CSCCC(=O)N5CN6CN(C5)C(=O)CCSC[C@H](NC(=O)[C@H](Cc5ccc(O)cc5)NC(=O)[C@@H]5CCCN5C4=O)C(=O)N[C@@H](Cc4ccccc4)C(=O)N[C@@H](C)C(=O)N[C@@H](CC(=O)O)C(=O)N4CCC[C@H]4C(=O)N[C@@H](Cc4ccc(O)cc4)C(=O)N[C@@H](CCCC)C(=O)N[C@H](C(=O)N[C@@H](C)C(N)=O)CSCCC6=O)nn3)nn1)C(=O)N1CCC[C@H]1C(=O)N[C@@H](Cc1ccc(O)cc1)C(=O)N2 [BCY11863] | none of the CR mice developed tumors; also recorded: none of the inoculated complete responder mice developed tumors | 28 ± 5 nM | 0.14 ± 0.07 nM | 0.52 ± 0.3 nM | 0.31 ± 0.26 nM | 0.23 ± 0.01 nM | 0.28 ± 0.2 nM | 0.33 ± 0.21 nM | 0.42 ± 0.24 nM | induces strong CD137 activation | 4.56 fold | 2.16 fold | 81 ± 29 fold | 27 ± 15 nM | 5 to 27 nM | 25 ± 2 nM |  |  |  |  |
| I: A[hArg]DC[Hyp]LVNPLCLEP[d1Nal]WTC-NH2 / II: Ac-C[tBuAla]PE[dK]PYCFADPY[Nle]CA-NH2 / III: Ac-C[tBuAla]PE[dK]PYCFADPY[Nle]CA-NH2 (linker I:4-I:11-I:18, II:1-II:8-II:15, III:1-III:8-III:15 via TATA; linker I:N-II:5-III:5 via X1) [BCY13272] |  |  |  |  |  |  |  |  |  |  |  |  |  |  |  |  | 2 out of 6 | 5 out of 6 | no tumor regrowth | 2 nM |
